# Data published in patent US6486193B2, “3-substituted pyrrolidines useful as inhibitors of matrix metalloproteinases” (Aventis Pharmaceuticals Inc., priority 1998, dated 2002).
# How the values were obtained:
# MMP-1 = target: T1, MMP-1 (Homo sapiens, UniProt P03956); test: Determination of inhibition constant (Ki) for MMP-1, fluorogenic substrate; assay type: biochemical; conditions: footnote: results are identical for MMP-1, MMP-2, MMP-3, MMP-13 and MMP-14, read-out: MMP Ki app
# T1 construct: The active MMP-1 was obtained by treatment of proMMP-1 with trypsin; endogenous in cells; host or cells: human rheumatoid synovial fibroblasts stimulated with macrophage-conditioned medium (secreted proenzyme purified from the medium)
# T1 sequence (P03956 100-469): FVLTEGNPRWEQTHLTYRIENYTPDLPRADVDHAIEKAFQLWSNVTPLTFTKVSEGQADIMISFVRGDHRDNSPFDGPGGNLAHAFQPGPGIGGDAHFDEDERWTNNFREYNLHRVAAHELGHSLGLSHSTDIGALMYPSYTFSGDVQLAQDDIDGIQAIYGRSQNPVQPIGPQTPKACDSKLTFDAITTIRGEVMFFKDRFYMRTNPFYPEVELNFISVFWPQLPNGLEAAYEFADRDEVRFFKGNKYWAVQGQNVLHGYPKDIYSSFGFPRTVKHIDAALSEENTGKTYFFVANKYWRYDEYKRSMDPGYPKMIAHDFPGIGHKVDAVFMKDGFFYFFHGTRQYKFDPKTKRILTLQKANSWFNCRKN
# Method: (§1) ProMMP-1 (EC 3.4.24.7; interstitial collagenase) was purified from culture medium of human rheumatoid synovial fibroblasts stimulated with macrophage-conditioned medium according to Okada, Y. et al., J. Biol. Chem. 261, 14245-14255 (1986). The active MMP-1 was obtained by treatment of proMMP-1 with trypsin (5 μg/mL) at 37° C. for 30 minutes, followed by addition of soybean trypsin inhibitor (50 μg/mL).
# Determination of Inhibition Constant (Ki) for MMP-1 The activated MMP-1 is assayed using a fluorogenic substrate, Mca-Pro-Leu-Gly-Leu-Dpa-Ala-Arg-NH2, Knight, C. G. et al., FEBS Lett. 296, 263-266 (1992), at 37° C. in 2.0 mL of assay buffer containing 50 mM Tris, pH 7.6, 0.2 M sodium chloride, 50 mM calcium chloride, and 0.02% Brij-35. The increase in fluorescence due to cleavage of Gly-Leu peptide bond by MMP-3 was monitored with Perkin-Elmer LS50B Fluorimeter (λex328 nm, λem 393 nm, excitation slit 2.5, emission slit 10). Substrate and inhibitor stock solutions were made in DMF. For determination of Ki values for MMP-1 inhibitors, a series of intermediate inhibitor solutions were prepared in DMF and 1 or 2 μL of the diluted inhibitor solution was mixed with 1 μL of 2 mM substrate solution in DMF in a quartz cuvette containing 2 mL of assay buffer. The enzyme (10 μL of 0.2 μM MMP-3 dilution in assay buffer) was added at the last to start the reaction. For routine measurement of a Ki value for a reversible, competitive inhibitor, the initial rates in the presence of at least four inhibitor concentrations (two concentrations above Ki and two concentrations below Ki) were measured using [S]=1 μM (<<Km) and [MMP-1]=0.8 nM. Under these conditions, the measured Ki app is close to true Ki.
# (§2) The Ki for a competitive inhibitor is calculated using: v0/vi=(1+[I]/Ki, app) and Ki=Ki, app/(1+[S]/Km), where v0 is the initial rate in the absence of inhibitor, vi is the initial rate in the presence of inhibitor at the concentration of [I], [S] is the substrate concentration, and Km is the Michaelis constant. If slow binding is observed (i.e. if the approach to the binding equilibrium is slow), the final steady-state rate rather than the initial rate is taken as vi.
# MMP-3 = target: T2, MMP-3 (Homo sapiens, UniProt P08254); test: Determination of inhibition constant (Ki) for MMP-3, fluorogenic substrate; assay type: biochemical; conditions: footnote: results are identical for MMP-1, MMP-2, MMP-3, MMP-13 and MMP-14, read-out: MMP Ki app
# T2 construct: The active MMP-3 was obtained by treatment of proMMP-3 with trypsin; endogenous in cells; host or cells: human rheumatoid synovial fibroblasts stimulated with macrophage-conditioned medium (secreted proenzyme purified from the medium)
# T2 sequence (P08254 100-477): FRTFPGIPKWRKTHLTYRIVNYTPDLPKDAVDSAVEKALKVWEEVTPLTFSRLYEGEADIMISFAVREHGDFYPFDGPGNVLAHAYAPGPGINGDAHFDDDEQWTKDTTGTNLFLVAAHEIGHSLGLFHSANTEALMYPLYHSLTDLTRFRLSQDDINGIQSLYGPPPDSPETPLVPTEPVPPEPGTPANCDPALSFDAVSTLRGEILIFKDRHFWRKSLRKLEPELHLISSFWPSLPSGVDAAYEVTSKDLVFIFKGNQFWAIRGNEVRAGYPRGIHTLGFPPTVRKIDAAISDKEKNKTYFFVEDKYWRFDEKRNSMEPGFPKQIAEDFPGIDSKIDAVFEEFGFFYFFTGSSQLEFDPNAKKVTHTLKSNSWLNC
# Method: as §1, with “ProMMP-3” for “ProMMP-1”, “3.4.24.17; Stromelysin-1)” for “3.4.24.7; interstitial collagenase)”, “MMP-3” for “MMP-1”, “proMMP-3” for “proMMP-1”, “μg/mL). Aliquots of the activated MMP-3 were stored at −20° C.” for “μg/mL).”
# The activated MMP-3 is assayed using a fluorogenic substrate, Mca-Pro-Leu-Gly-Leu-Dpa-Ala-Arg-NH2, Knight, C.G. et al., FEBS Lett. 296, 263-266 (1992), at 37° C. in an assay buffer containing 50 mM Tris, pH 7.6, 0.2 M sodium chloride, 50 mM calcium chloride, and 0.02% Brij-35. The increase in fluorescence due to cleavage of Gly-Leu peptide bond by MMP-3 was monitored with Perkin-Elmer LS50B Fluorimeter (λex 328 nm, λem 393 nm, excitation slit 2.5, emission slit 10). Substrate and inhibitor stock solutions were made in DMF and 0.1 % HCl-DMF, respectively. For determination of Ki values for MMP-3 inhibitors, a series of intermediate inhibitor solutions were prepared in 0.1% HCl-DMF and 1 or 2 μL of the diluted inhibitor solution was mixed with 1 μL of 2 mM substrate solution in DMF in a quartz cuvette containing 2 mL of assay buffer. The enzyme (10 μL of 0.2 μM MMP-3 dilution in assay buffer) was added at the last to start the reaction. For routine measurement of a Ki value for a reversible, competitive inhibitor, the initial rates in the presence of at least four inhibitor concentrations (two concentrations above Ki and two concentrations below Ki) were measured using [S]=1 μM (<<Km) and [MMP-3]=1 nM. Under these conditions, the measured Ki, app is close to true Ki.
# as §2, with “The K,” for “The Ki”, “using: V0/vi=(1+[I]/Ki,” for “using: v0/vi=(1+[I]/Ki,”
Ki (MMP-1),Ki (MMP-3),SMILES
> 10 µM,> 10 µM,"CNC(=O)[C@@H](Cc1cccnc1)NC(=O)[C@@H]1[C@@H](Cc2ccccc2)CCN1C(=O)[C@@H](S)C(C)C [Compound 1e, (2S,3S)-3-Benzyl-1-((S)-2-mercapto-3-methyl-butanoyl)-pyrrolidine-2-carboxylic acid ((R)-1-methylcarbamoyl-2-pyridin-3-yl-ethyl)-amide]"
> 10 µM,> 10 µM,"CNC(=O)[C@@H](NC(=O)[C@@H]1[C@H](Cc2ccccc2)CCN1C(=O)[C@@H](S)C(C)C)C(C)(C)C [Compound 1h, (2S,3R)-3-Benzyl-1-((S)-2-mercapto-3-methyl-butanoyl)-pyrrolidine-2-carboxylic acid ((S)-2,2-dimethyl-1-methylcarbamoyl-propyl)-amide]"
> 10 µM,> 10 µM,"CNC(=O)[C@H](Cc1cccnc1)NC(=O)[C@@H]1[C@@H](Cc2ccccc2)CCN1C(=O)[C@@H](S)C(C)C [Compound 1c, (2S,3S)-3-Benzyl-1-((S)-2-mercapto-3-methyl-butanoyl)-pyrrolidine-2-carboxylic acid ((S)-1-methylcarbamoyl-2-pyridin-3-yl-ethyl)-amide]"
> 10 µM,> 10 µM,"CNC(=O)[C@@H](NC(=O)[C@@H]1[C@@H](Cc2ccccc2)CCN1C(=O)[C@@H](S)C(C)C)C(C)(C)C [Compound 1g, (2S,3S)-3-Benzyl-1-((S)-2-mercapto-3-methyl-butanoyl)-pyrrolidine-2-carboxylic acid ((S)-2,2-dimethyl-1-methylcarbamoyl-propyl)-amide]"
> 10 µM,> 10 µM,"CNC(=O)[C@H](Cc1cccnc1)NC(=O)[C@@H]1[C@H](Cc2ccccc2)CCN1C(=O)[C@@H](S)C(C)C [Compound 1d, (2S,3R)-3-Benzyl-1-((S)-2-mercapto-3-methyl-butanoyl)-pyrrolidine-2-carboxylic acid ((S)-1-methylcarbamoyl-2-pyridin-3-yl-ethyl)-amide]"
> 10 µM,> 10 µM,"CNC(=O)[C@@H](Cc1cccnc1)NC(=O)[C@@H]1C(Cc2ccccc2)CCN1C(=O)[C@@H](S)C(C)C (stereo in doubt) [Compound 1f, (2S,3S)-3-Benzyl-1-((S)-2-mercapto-3-methyl-butanoyl)-pyrrolidine-2-carboxylic acid ((R)-1-methylcarbamoyl-2-pyridin-3-yl-ethyl)-amide]"
> 10 µM,> 10 µM,"CNC(=O)[C@H](Cc1ccc(O)cc1)NC(=O)[C@@H]1[C@@H](Cc2ccccc2)CCN1C(=O)[C@@H](S)C(C)C [Compound 1a, (2S,3S)-3-Benzyl-1-((S)-2-mercapto-3-methyl-butanoyl)-pyrrolidine-2-carboxylic acid [(S)-2-(4-hydroxy-phenyl)-1-methylcarbamoyl-ethyl]-amide]"
> 10 µM,> 10 µM,"CNC(=O)[C@H](Cc1ccc(O)cc1)NC(=O)[C@@H]1[C@H](Cc2ccccc2)CCN1C(=O)[C@@H](S)C(C)C [Compound 1b, (2S,3R)-3-Benzyl-1-((S)-2-mercapto-3-methyl-butanoyl)-pyrrolidine-2-carboxylic acid [(S)-2-(4-hydroxy-phenyl)-1-methylcarbamoyl-ethyl]-amide]"
